Our source for the EC50 and CC50 values is patent publication US20190375708A1 (VenatoRx Pharmaceuticals, Inc., priority 2018, published 2019).

The test system of series [1] is HBV replication in HepAD38 cells. The experiment in a line: Anti-HBV replication assay in HepAD38 cells (QPCR of extracellular HBV DNA). The series is classed as cell-based, HBV (genotype D, serotype ayw). The following applies: Hepatitis B virus, 168 h, 7 days incubation, extracellular HBV DNA by QPCR, read-out: Anti-HBV EC50. Put shortly:
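Read-out is QPCR of HBV DNA released into culture supernatant, converted to percent of vehicle control and fitted to give EC50. Cells were HepAD38 induced by tetracycline removal and dosed […] for 7 days.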

Series [2] is described as follows: In vitro cytotoxicity assay (MTT cell viability) in HepG2 cells. The series is classed as cell-based, human. The conditions noted are these: human. Put shortly: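 Read-out: MTT formazan absorbance at 492 nm, expressed as % of vehicle signal; CC50 by 4-parameter non-linear regression. Parental HepG2, 20,000 cells/well, treated 7 days with compound from 30 μM down to 1.0 nM.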

A value given as a limit tells only on which side of the number the result lay.

By EC50 is commonly meant the midpoint of the concentration-response curve. In general, CC50 refers to the concentration at which the toxic effect on the cells reaches its halfway point. A higher CC50 goes with better tolerance by the cells. `Cc1c(C(=O)Nc2ccnc(Cl)c2)c(C)n(C)c1C(=O)C(=O)NC1(C)CCOCC1` [Example 326, N-(2-chloropyridin-4-yl)-1,2,4-trimethyl-5-(2-((4-methyltetrahydro-2H-pyran-4-yl)amino)-2-oxoacetyl)-1H-pyrrole-3-carboxamide]: the EC50 in series [1] was under 50 nM. The compound further gave a 50% cytotoxic concentration (CC50) at 7 days in series [2] of over 30 µM.
Turning to `Cc1cc(NC(=O)c2c(C)c(C(=O)C(=O)N[C@H](C)C(F)(F)F)n(C)c2C)ccc1F` [Example 289, (R)-N-(4-fluoro-3-methylphenyl)-1,2,4-trimethyl-5-(2-oxo-2-((1,1,1-trifluoropropan-2-yl)amino)acetyl)-1H-pyrrole-3-carboxamide], the EC50 in series [1] was under 50 nM. The CC50 at 7 days in series [2] was in the range of 5 to 30 µM.
Take `Cc1nnc(NC(=O)C(=O)c2c(C)c(C(=O)Nc3ccc(F)c(C)c3)c(C)n2C)o1` [Example 305, N-(4-fluoro-3-methylphenyl)-1,2,4-trimethyl-5-(2-((5-methyl-1,3,4-oxadiazol-2-yl)amino)-2-oxoacetyl)-1H-pyrrole-3-carboxamide]: the EC50 in series [1] is over 1000 nM. This compound also had a CC50 at 7 days in series [2] of over 30 µM.
On the same counts, the results for `Cc1c(C(=O)Nc2ccc(F)c(F)c2)c2n(c1C(=O)C(=O)NCc1cnc(N)s1)CCCC2` [Example 455, 3-(2-(((2-aminothiazol-5-yl)methyl)amino)-2-oxoacetyl)-N-(3,4-difluorophenyl)-2-methyl-5,6,7,8-tetrahydroindolizine-1-carboxamide] are under 50 nM and 5 to 30 µM.
As to `Cc1cc(NC(=O)c2c(C)c(C(=O)C(=O)N[C@H]3CC[C@@H](O)CC3)n(C)c2C)cc(Cl)n1` [Example 628, N-(2-chloro-6-methylpyridin-4-yl)-5-(2-(((1s,4s)-4-hydroxycyclohexyl)amino)-2-oxoacetyl)-1,2,4-trimethyl-1H-pyrrole-3-carboxamide], the EC50 in series [1] was under 50 nM. In series [2], this compound yielded a CC50 at 7 days of over 30 µM.
On the same counts, the results for `Cc1cc(NC(=O)c2c(Cl)c(C(=O)C(=O)NCC(C)(C)O)n3c2CCC3)cnc1F` [Example 578, 6-chloro-N-(6-fluoro-5-methylpyridin-3-yl)-5-(2-((2-hydroxy-2-methylpropyl)amino)-2-oxoacetyl)-2,3-dihydro-1H-pyrrolizine-7-carboxamide] are 500 to 1000 nM and over 30 µM.
Consider `Cc1c(C(=O)Nc2cc(F)c(F)c(F)c2)c(Cl)c(C(=O)C(=O)N[C@@H]2CCC[C@@H]2O)n1C` [Example 374, 4-chloro-5-(2-(((1R,2S)-2-hydroxycyclopentyl)amino)-2-oxoacetyl)-1,2-dimethyl-N-(3,4,5-trifluorophenyl)-1H-pyrrole-3-carboxamide], for which, in series [1], the EC50 was under 50 nM. The same compound had a CC50 at 7 days in series [2] of 0.5 to 4.99 µM.
On the same counts, the results for `Cc1noc([C@H](C)NC(=O)C(=O)c2c(Cl)c(C(=O)Nc3ccc(F)c(Cl)c3)c3n2CCC3)n1` [Example 553, (S)-6-chloro-N-(3-chloro-4-fluorophenyl)-5-(2-((1-(3-methyl-1,2,4-oxadiazol-5-yl)ethyl)amino)-2-oxoacetyl)-2,3-dihydro-1H-pyrrolizine-7-carboxamide] are under 50 nM and 5 to 30 µM.
Consider `Cc1c(C(=O)Nc2cccc(Cl)c2)c(C)n(C)c1C(=O)C(=O)N[C@]1(C)CC[C@@H](O)CC1` [Example 615, N-(3-chlorophenyl)-5-(2-(((1r,4r)-4-hydroxy-1-methylcyclohexyl)amino)-2-oxoacetyl)-1,2,4-trimethyl-1H-pyrrole-3-carboxamide], for which the EC50 in series [1] was under 50 nM. The CC50 at 7 days in series [2] was over 30 µM.
On to `Cc1c(C(=O)NC2CCC(F)(F)C2)c2n(c1C(=O)C(=O)NC(C)(C)CO)CCCC2` (stereo not drawn) [Example 752, N-(3,3-difluorocyclopentyl)-3-(2-((1-hydroxy-2-methylpropan-2-yl)amino)-2-oxoacetyl)-2-methyl-5,6,7,8-tetrahydroindolizine-1-carboxamide], for which the EC50 in series [1] is 50 to 499 nM. The CC50 at 7 days in series [2] is over 30 µM.
Turning to `CC(=O)N1CC(C)(NC(=O)C(=O)c2c(C)c(C(=O)Nc3ccc(F)c(C)c3)c(C)n2C)C1` [Example 645, 5-(2-((1-acetyl-3-methylazetidin-3-yl)amno)-2-oxoacetyl)-N-(4-fluoro-3-methylphenyl)-1,2,4-trimethyl-1H-pyrrole-3-carboxamide], the EC50 in series [1] was under 50 nM. Besides, the CC50 at 7 days in series [2] is over 30 µM.
As for `Cc1cc(NC(=O)c2c(C)c(C(=O)C(=O)N[C@H]3CC[C@](O)(C(F)(F)F)CC3)n(C)c2C)ccc1F` [Example 221, N-(4-fluoro-3-methylphenyl)-5-(2-(((1s,4s)-4-hydroxy-4-(trifluoromethyl)cyclohexyl)amino)-2-oxoacetyl)-1,2,4-trimethyl-1H-pyrrole-3-carboxamide], the EC50 in series [1] is under 50 nM. In series [2], this compound registered a CC50 at 7 days of 5 to 30 µM.
On the same counts, the results for `Cc1c(C(=O)Nc2ccc(F)nc2)c(C)n(C)c1C(=O)C(=O)NC1(C(F)(F)F)CCOCC1` [Example 110, N-(6-fluoropyridin-3-yl)-1,2,4-trimethyl-5-(2-oxo-2-((4-(trifluoromethyl)tetrahydro-2H-pyran-4-yl)amino)acetyl)-1H-pyrrole-3-carboxamide] are under 50 nM and over 30 µM.
On the same counts, the results for `Cc1cc(NC(=O)c2c(C)c(C(=O)C(=O)NC3CCN(C4CCSCC4)CC3)n(C)c2C)ccc1F` [Example 654, N-(4-fluoro-3-methylphenyl)-1,2,4-trimethyl-5-(2-oxo-2-((1-(tetrahydro-2H-thiopyran-4-yl)piperidin-4-yl)amino)acetyl)-1H-pyrrole-3-carboxamide] are under 50 nM and over 30 µM.
Take `Cc1cc(NC(=O)c2c(C)c(C(=O)C(=O)N[C@H]3CCN(S(C)(=O)=O)C3)n(C)c2C)ccc1F` [Example 667, (S)-N-(4-fluoro-3-methylphenyl)-1,2,4-trimethyl-5-(2-((1-(methylsulfonyl)pyrrolidin-3-yl)amino)-2-oxoacetyl)-1H-pyrrole-3-carboxamide]: the EC50 in series [1] is under 50 nM. In series [2], this compound yielded a CC50 at 7 days of 0.5 to 4.99 µM.
With `CNC(=O)[C@H](NC(=O)C(=O)c1c(C)c(C(=O)Nc2ccc(F)c(C)c2)c(C)n1C)[C@@H](C)O` [Example 62, N-(4-fluoro-3-methylphenyl)-5-(2-(((2R,3R)-3-hydroxy-1-(methylmaino)-1-oxobutan-2-yl)amino)-2-oxoacetyl)-1,2,4-trimethyl-1H-pyrrole-3-carboxamide], the EC50 in series [1] was under 50 nM. Besides, in series [2], the CC50 at 7 days was over 30 µM.
On the same counts, the results for `Cc1cc(NC(=O)c2c(C)c(C(=O)C(=O)NC(C)(C)C)n(C)c2C)cnc1F` [Example 112, 5-(2-(tert-butylamino)-2-oxoacetyl)-N-(6-fluoro-5-methylpyridin-3-yl)-1,2,4-trimethyl-1H-pyrrole-3-carboxamide] are 50 to 499 nM and over 30 µM.
On the same counts, the results for `Cc1cc(NC(=O)c2c(C)c(C(=O)C(=O)NC(C)(C)c3noc(CN(C)C)n3)n(C)c2C)cnc1F` [Example 200, 5-(2-((2-(5-((dimethylamino)methyyl)-1,2,4-oxadiazol-3-yl)propan-2-yl)amino)-2-oxoacetyl)-N-(6-fluoro-5-methylpyridin-3-yl)-1,2,4-trimethyl-1H-pyrrole-3-carboxamide] are 50 to 499 nM and over 30 µM.
